Reference: patent US7851492B2, “ERG channel openers for the treatment of cardiac arrhythmias” (Neurosearch A/S, priority 2003, dated 2010)

Key:
HERG1 channel [1] = target: T1, HERG1 channel (Homo sapiens, UniProt Q12809); assay: HERG1 current by 2-electrode voltage clamp in Xenopus laevis oocytes transiently expressing HERG1 channels; format: cell-based
T1 construct: expressed in transfected cells; host or cells: Xenopus laevis oocytes (transient expression, vector pXOOM)
Method: The HERG1 channel is expressed in HEK293 cells. The gene encoding the HERG1 channel was cloned as described by Warmke & Ganetzky, Proc. Natl. Acad. Sci. USA 1994 91 3438-3442.
(§1) To ensure functional expression in HEK293 cells, the HERG1 gene was sub-cloned in the shuttle-vector pXOOM as described by Jespersen et al.; Biotechniques 2002 32 536-540.
The electrical current through the HERG1 channel is measured using 2-electrode voltage clamp technology. HERG1 current is activated by a step protocol.
In brief, this protocol goes from a resting membrane potential of −80 mV (lasting 3 seconds) to a 1 second depolarisation step at +10 mV, followed by a repolarisation step at −60 mV. The protocol is repeated up to 500 times.
Xenopus laevis oocytes transiently expressing HERG1 channels where challenged by a voltage protocol from −80 mV to +10 mV to −60 mV. This protocol was repeated every 7th second until a stable current level was obtained.

HERG1 channel [2] = target: T1, HERG1 channel; assay: HERG1 current by patch clamp with simulated cardiac action potential in HEK293 cells stably expressing HERG1 channels; format: cell-based
Method: In this example the HERG1 channel opening activity of a diphenyl urea derivative for use according to the invention, 1-(3-Trifluoromethyl-phenyl)-3-(2-hydroxy-5-chlorophenyl)-urea (Compound A), is determined using mammalian HEK293 cells stably expressing HERG1 channels.
The HERG1 channel is expressed in HEK293 cells. The gene encoding the HERG1 channel was cloned as described by Warmke & Ganetzky; Proc. Natl. Acad. Sci. USA 1994 91 3438-3442.
as §1
Mammalian expression is obtained by stable transfection of the gene construct in HEK293 cells.
The electrical current through the HERG1 channel is measured using patch clamp technology. HERG1 current is activated by simulated cardiac action potentials.
In brief, this protocol goes from a resting membrane potential of −90 mV to a short initial depolarisation step to +30 mV, followed by a ramp ending at 0 mV. This plateau phase is ended by a repolarisation, going from −15 mV to −90 mV in 70 ms, back to the resting membrane potential, as also shown in the voltage protocol in FIG. 1.
Having reached a stable current level, Compound A was added.

awake guinea pigs = assay: Awake guinea-pig telemetry model: QT intervals in electrocardiograms; format: in vivo; settings: 50 mg/kg IV
Method: Compounds were dosed IV, and ECG's and heart rate were measured. QT intervals were corrected (QTc) for any change in heart rate.

native cardiac myocytes = assay: Modulation of action potentials in native cardiac myocytes (patch clamp, current clamp mode); format: cell-based, guinea pig
Method: In this example the activity on native cardiac myocytes from guinea pigs of a compound representative of the invention, 1,3-Bis-(2-hydroxy-5-trifluoromethyl-phenyl)-urea (Compound C), obtained as described in WO 2002/064128, is determined.
The membrane potential of native cardiomyocytes was determined using the patch clamp technique in current clamp mode. The membrane potential was adjusted to approximately −80 mV before start of experiments. Cells were challenged by 20 repetitive rounds of current applications. A single round of application was as follows: Action potentials were evoked by applying a single current pulse of 1 nA lasting from 5-15 ms. The single pulse was followed by 30 repetitive pulses lasting 1-5 ms and with a current amplitude of 100-700 pA. The repetitive pulses were applied at the end of the evoked action potential. These experiments were conducted in the presence or absence of Compound C.
Native cardiomyocytes responded to the described voltage protocol by eliciting an actionpotential.

[3] = native guinea pig cardiomyocytes, current clamp, Example 3

T1 sequence (Q12809 whole entry): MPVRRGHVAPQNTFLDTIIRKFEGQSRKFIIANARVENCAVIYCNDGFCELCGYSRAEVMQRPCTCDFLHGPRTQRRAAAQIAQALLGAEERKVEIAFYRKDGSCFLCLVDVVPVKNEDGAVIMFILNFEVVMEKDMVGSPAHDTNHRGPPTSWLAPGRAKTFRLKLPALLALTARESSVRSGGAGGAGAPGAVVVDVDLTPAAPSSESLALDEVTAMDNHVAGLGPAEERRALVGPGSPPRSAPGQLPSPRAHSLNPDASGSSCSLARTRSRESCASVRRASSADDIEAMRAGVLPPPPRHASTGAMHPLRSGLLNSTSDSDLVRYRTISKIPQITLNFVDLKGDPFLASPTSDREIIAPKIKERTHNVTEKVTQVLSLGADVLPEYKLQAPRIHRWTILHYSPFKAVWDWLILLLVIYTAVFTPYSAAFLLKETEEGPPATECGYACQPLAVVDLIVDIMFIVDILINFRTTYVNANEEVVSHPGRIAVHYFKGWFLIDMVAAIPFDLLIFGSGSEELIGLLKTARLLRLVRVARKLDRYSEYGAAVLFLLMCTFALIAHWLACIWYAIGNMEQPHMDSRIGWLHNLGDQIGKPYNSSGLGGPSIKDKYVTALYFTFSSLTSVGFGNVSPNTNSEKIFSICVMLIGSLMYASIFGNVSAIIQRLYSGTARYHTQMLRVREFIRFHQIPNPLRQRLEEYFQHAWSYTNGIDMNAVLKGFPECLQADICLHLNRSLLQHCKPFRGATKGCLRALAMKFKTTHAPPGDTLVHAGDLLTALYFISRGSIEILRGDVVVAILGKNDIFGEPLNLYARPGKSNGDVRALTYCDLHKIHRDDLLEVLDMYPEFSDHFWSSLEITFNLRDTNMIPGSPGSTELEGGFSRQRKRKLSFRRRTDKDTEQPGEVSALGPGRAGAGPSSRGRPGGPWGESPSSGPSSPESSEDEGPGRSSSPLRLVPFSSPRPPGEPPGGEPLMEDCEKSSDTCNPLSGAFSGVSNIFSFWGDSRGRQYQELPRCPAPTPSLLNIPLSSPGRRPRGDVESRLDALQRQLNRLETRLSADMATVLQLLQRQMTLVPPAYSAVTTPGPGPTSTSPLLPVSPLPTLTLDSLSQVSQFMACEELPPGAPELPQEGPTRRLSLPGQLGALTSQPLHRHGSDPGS

| melting point | Compound | also measured |
| --- | --- | --- |
| 158 to 159 °C | O=C(Nc1cc(C(F)(F)F)ccc1O)Nc1ccccc1C(F)(F)F [Compound 1, 1-(2-Hydroxy-5-trifluoromethyl-phenyl)-3-(2-trifluoromethyl-phenyl)-urea] |  |
| 224 to 225 °C | O=C(Nc1ncccn1)Nc1ccccc1C(F)(F)F [Compound 2, 1-Pyrimidin-2-yl-3-(2-trifluoromethyl-phenyl)-urea] |  |
| 183 to 184 °C | O=C(Nc1cc(Cl)ccc1O)Nc1ccccc1C(F)(F)F [Compound 3, 1-(5-Chloro-2-hydroxy-phenyl)-3-(2-trifluoromethyl-phenyl)-urea] |  |
| 223 to 224 °C | COc1ccc(NC(=O)Nc2cccc(C(F)(F)F)c2)c(O)n1 [Compound 4, 1-(2-Hydroxy-6-methoxy-pyridin-3-yl)-3-(3-trifluoromethyl-phenyl)-urea] |  |
| > 300 °C | O=C(Nc1cccc(C(F)(F)F)c1)Nc1c(C(=O)O)[nH]c(=O)[nH]c1=O [Compound 7, 2,6-Dioxo-5-[3-(3-trifluoromethyl-phenyl)-ureido]-1,2,3,6-tetrahydro-pyrimidine-4-carboxylic acid] |  |
| > 300 °C | O=C(Nc1cccc(C(F)(F)F)c1)Nc1nccnc1C(=O)O [Compound 8, 3-[3-(3-Trifluoromethyl-phenyl)-ureido]-pyrazine-2-carboxylic acid] |  |
| 195 to 197 °C | O=C(Nc1ccccc1F)Nc1cc(Cl)ccc1C(=O)O [Compound 9, 4-Chloro-2-[3-(2-fluoro-phenyl)-ureido]-benzoic acid] |  |
| 184.5 to 189.3 °C | CN(C)C(=O)CCc1ccc(NC(=O)Nc2ccc(Cl)c(C(F)(F)F)c2)c(-c2nnn[nH]2)c1 [Compound 11, 3-[4-[3-(4-Chloro-3-trifluoromethyl-phenyl)-ureido]-3-(1H-tetrazol-5-yl)-phenyl]-N,N-dimethyl-propionamide] |  |
| 234 to 236 °C | O=C(Nc1cc(Cl)cc(Cl)c1)Nc1ccc(Cl)cc1-c1nnn[nH]1 [Compound 12, 1-[4-Chloro-2-(1H-tetrazol-5-yl)-phenyl]-3-(3,5-dichloro-phenyl)-urea] |  |
| 156 °C (dec.) | O=C(Nc1ccc(-c2ccccc2)cc1-c1nnn[nH]1)c1cc(C(F)(F)F)cc(C(F)(F)F)c1 [Compound 15, N-[3-(1H-Tetrazol-5-yl)-biphenyl-4-yl]-3,5-bis-trifluoromethyl-benzamide] | HERG1 current (HERG1 channel [1]; 1-30 μM): increase; repolarisation current recorded at −60 mV (HERG1 channel [1]; voltage protocol −80 mV to +10 mV to −60 mV (FIG. 2)): marked increase |
| > 219 °C (dec.) | O=C(Nc1ccc(Nc2ccc(Cl)cc2)c(Cl)c1)c1cc([N+](=O)[O-])ccc1O [Compound 17, N-[3-Chloro-4-(4-chloro-phenylamino)-phenyl]-2-hydroxy-5-nitro-benzamide] |  |
|  | O=C(Nc1cccc(C(F)(F)F)c1)Nc1cc(Cl)ccc1O [Compound A, 1-(3-Trifluoromethyl-phenyl)-3-(2-hydroxy-5-chlorophenyl)-urea] | repolarisation current (HERG1 channel [2]; HEK293 cells stably expressing HERG1, simulated cardiac action potential, 10 μM (FIG. 1)): marked increase; current during the last phase of the cardiac simulating voltage protocol (repolarisation current) (HERG1 channel [2]; HEK293 cells, 3-30 μM): increase; HERG1 current in the first 200 ms of the resting phase (HERG1 channel [2]; HEK293 cells, simulated cardiac action potential): increased |
|  | O=C(Nc1cccc(C(F)(F)F)c1)Nc1ccc(Br)cc1-c1nnn[nH]1 [Compound B, 1-(3-Trifluoromethyl-phenyl)-3-[2-(1H-tetrazol-5-yl)-4-bromo-phenyl] urea] | reduction of the length of the corrected QT interval (QTc) compared to controls (awake guinea pigs): 23% |
|  | O=C(Nc1cc(C(F)(F)F)ccc1O)Nc1cc(C(F)(F)F)ccc1O [Compound C, 1,3-Bis-(2-hydroxy-5-trifluoromethyl-phenyl)-urea] | cardiac action potential duration (native cardiac myocytes; [3]): shorting of the cardiac action potential; membrane potential in the presence of the 30 repetitive pulses (native cardiac myocytes; [3]): stable membrane potential; rounds of current applications in which stabilisation was observed (native cardiac myocytes; of 20 rounds of current applications): 20 rounds |
